# Test results reported in article PMC5247395 (EJNMMI Research, 2017).
# Assays:
# [1] = n-octanol/PBS distribution coefficient (shake-flask); assay type: physicochemical; details: n-octanol/PBS pH 7.4, shake-flask
# Procedure: The distribution coefficients (logD values) of the radioligands were determined by a shake-flask method using liquid-liquid extraction followed by phase separation, as previously reported (Additional file 1). In brief, the PSMA ligands were labeled at a specific activity of 5 MBq/nmol. […] The vials were vortexed vigorously for 1 min and then centrifuged for 6 min for phase separation. The concentration of radioactivity in a defined volume of each layer was measured in a γ-counter (Perkin Elmer, Wallac Wizard 1480). The distribution coefficients were expressed as the logarithm of the ratio of counts per minute (cpm) measured in the n-octanol phase to the cpm measure in the PBS phase. The values are reported as the average of at least three independent measurements (± standard deviation, SD), each performed with five replicates. Data were analyzed for significance using a one-way ANOVA test (GraphPad Prism software, version 7). A p value of <0.05 was considered as statistically significant.
# PSMA = target: T1, PSMA (Homo sapiens, UniProt Q04609); assay: Saturation binding assay on PC-3 PIP cells (PSMA affinity, KD)
# T1 construct: expressed in transfected cells; host or cells: PC-3 PIP cells (PSMA-positive subline of human PC-3 prostate cancer cells), provided by Prof; Martin Pomper, Johns Hopkins
# T1 sequence (Q04609 whole entry): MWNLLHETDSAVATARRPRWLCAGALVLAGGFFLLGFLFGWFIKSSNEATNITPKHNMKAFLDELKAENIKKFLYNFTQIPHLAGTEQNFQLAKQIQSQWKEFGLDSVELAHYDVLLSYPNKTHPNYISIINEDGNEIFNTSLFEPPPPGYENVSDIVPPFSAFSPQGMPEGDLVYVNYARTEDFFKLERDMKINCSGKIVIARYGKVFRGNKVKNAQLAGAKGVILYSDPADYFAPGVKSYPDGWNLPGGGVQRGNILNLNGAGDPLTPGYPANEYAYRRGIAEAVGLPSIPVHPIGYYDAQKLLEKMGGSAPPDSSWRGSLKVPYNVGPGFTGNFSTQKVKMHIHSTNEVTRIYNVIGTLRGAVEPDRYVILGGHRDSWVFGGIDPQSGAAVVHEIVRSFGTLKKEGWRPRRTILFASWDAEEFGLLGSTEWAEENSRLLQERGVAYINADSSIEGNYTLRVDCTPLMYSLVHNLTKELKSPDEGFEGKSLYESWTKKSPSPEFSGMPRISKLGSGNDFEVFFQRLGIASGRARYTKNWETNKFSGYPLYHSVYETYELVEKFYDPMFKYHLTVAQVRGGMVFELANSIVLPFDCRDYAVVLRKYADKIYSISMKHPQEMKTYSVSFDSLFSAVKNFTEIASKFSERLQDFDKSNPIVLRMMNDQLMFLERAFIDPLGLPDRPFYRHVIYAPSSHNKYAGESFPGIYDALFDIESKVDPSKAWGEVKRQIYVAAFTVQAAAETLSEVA
# Procedure: Determination of the PSMA affinity was performed by saturation binding assays using PC-3 PIP cells and different concentrations of ^nat/44Sc-, ^nat/177Lu-, ^nat/68Ga-PSMA-617, or ^nat/68Ga-PSMA-11, respectively (Additional file 1).
# Determination of the KD values was performed by saturation binding assays using PSMA^pos PC-3 PIP cells. After successful radiolabeling of the PSMA ligands, a 2.5-fold molar excess of the corresponding cold metal was added and the reaction mixture was incubated for another 10 min at 95 °C. Quality control was performed again after reaction of the radioligands with the “cold” metal as described in the main manuscript.
# The cells were seeded in 48-well-plates (8 x 10^5 cells in 500 uL RPMI medium/well) allowing adhesion and growth overnight at 37 °C and 5% CO2. For the entire experiment, the well-plates were kept on ice. After removal of the supernatant, the cells were washed once with ice-cold PBS pH 7.4 prior to the addition of different concentrations (1 nM-2 µM) of either ^nat/44Sc-, ^nat/177Lu-, ^nat/67/68Ga-PSMA-617 or ^nat/67/68Ga-PSMA-11 in ice-cold RPMI medium without supplements. For the determination of non-specific binding, cell samples were incubated with 2-phosphonomethyl pentanedioic acid (2-PMPA, 200 μM). The well-plates were incubated for 30 min at 4 °C. Then, the supernatants were removed and the cells washed twice with ice-cold PBS followed by addition of NaOH (1 M, 600 µL) to each well. The cell suspensions were transferred to 4 mL tubes for measurement in a γ-counter (Wallac Wizard 1480, Perkin Elmer). The KD values were determined by plotting specific-binding (total binding minus unspecific binding) against the molar concentration of the added radioligands followed by nonlinear regression analysis using GraphPad Prism 7 software.
# [2] = system: PC-3 PIP/flu tumor-bearing mice; assay: Biodistribution in PC-3 PIP/flu tumor-bearing mice; details: i.v.; for PC-3 flu Tumor: PSMA^neg xenograft; for PC-3 PIP Tumor: PSMA^pos xenograft
# Procedure: In vivo experiments were approved by the local veterinarian department and conducted in accordance with the Swiss law of animal protection. All mice were obtained from Charles River Laboratories (Sulzfeld, Germany), at the age of 5–6 weeks. Female, athymic nude Balb/c mice were subcutaneously inoculated with PC-3 PIP cells (6 × 10^6 cells in 100 μL Hank’s balanced salt solution (HBSS) with Ca^2+/Mg^2+) on the right shoulder and with PC-3 flu cells (5 × 10^6 cells in 100 μL HBSS with Ca^2+/Mg^2+) on the left shoulder 2 weeks before the performance of the experiments.
# Mice were sacrificed at different time points post injection (p.i.) of the radioligands. Selected tissues and organs were collected, weighed and measured using a γ-counter. The results were decay-corrected and listed as a percentage of the injected activity per gram of tissue mass (% IA/g).
# [3] = system: PC-3 PIP/flu tumor-bearing mice; assay: PET/CT and SPECT/CT imaging of PC-3 PIP/flu tumor-bearing mice; assay type: in vivo; details: 2 h after injection
# Procedure: PET/CT scans were performed using a small-animal bench-top PET/CT scanner (G8, Sofie Biosciences, Culver City, California, USA, and Perkin Elmer, Massachusetts, USA) and a small-animal SPECT/CT scanner (NanoSPECT/CT^TM, Mediso Medical Imaging Systems, Budapest, Hungary), respectively (Additional file 1). During the scans, the mice were anesthetized with a mixture of isoflurane and oxygen.
# The PET scans were followed by a CT of 1.5 min. The SPECT scan of 45 min duration was performed 2 h after injection of ^177Lu-PSMA-617 (~50 MBq, 1 nmol) followed by a CT of 7.5 min. Reconstruction of the acquired data was performed by using the software of the respective scanner.
# All images were prepared using VivoQuant post-processing software (version 2.10, inviCRO Imaging Services and Software, Boston USA). A Gauss post-reconstruction filter (full width at half maximum = 1 mm) was applied to the images, which were presented with the scale adjusted to allow visualization of the most important organs and tissues, usually by cutting 0.5–1% of the lower scale.
# PET/CT scans were performed with a small-animal bench-top PET/CT scanner (G8, Sofie Biosciences, Culver City, California, U.S. and Perkin Elmer, Massachusetts, U.S.). The energy window ranged from 150 keV to 650 keV. […]
structure (smiles),measurement,setting,value
O=C([O-])CN(CCN(CC(=O)[O-])Cc1cc(CCC(=O)NCCCCCC(=O)NCCCC[C@H](NC(=O)N[C@@H](CCC(=O)O)C(=O)O)C(=O)O)ccc1[O-])Cc1cc(CCC(=O)O)ccc1[O-].[68Ga+3] [^68Ga-PSMA-11],LogD values,[1],−4.82 ± 0.07
same,Kd,"PSMA; 30 min at 4 °C, saturation binding",87 ± 27 nM
same,Relative PSMA-binding affinity,"PSMA; inverse molar ratio of average KD values, ^177Lu-PSMA-617 set to 1",0.4
same,Blood,[2]; 15 min p.i.,5.05 ± 0.58 % IA/g
same,Bone,[2]; 15 min p.i.,1.85 ± 0.20 % IA/g
same,Heart,[2]; 15 min p.i.,2.45 ± 0.29 % IA/g
same,Intestines,[2]; 15 min p.i.,1.42 ± 0.07 % IA/g
same,Kidneys,[2]; 15 min p.i.,74.7 ± 7.02 % IA/g
same,Liver,[2]; 15 min p.i.,2.00 ± 0.32 % IA/g
same,Lung,[2]; 15 min p.i.,3.87 ± 0.22 % IA/g
same,Muscle,[2]; 15 min p.i.,1.21 ± 0.11 % IA/g
same,Salivary glands,[2]; 15 min p.i.,2.73 ± 0.27 % IA/g
same,Spleen,[2]; 15 min p.i.,5.33 ± 1.78 % IA/g
same,Stomach,[2]; 15 min p.i.,1.42 ± 0.15 % IA/g
same,PC-3 flu Tumor,[2]; 15 min p.i.,2.19 ± 0.05 % IA/g
same,PC-3 PIP Tumor,[2]; 15 min p.i.,31.5 ± 13.0 % IA/g
same,Blood,[2]; 30 min p.i.,2.55 ± 0.72 % IA/g
same,Bone,[2]; 30 min p.i.,0.81 ± 0.14 % IA/g
same,Heart,[2]; 30 min p.i.,1.31 ± 0.19 % IA/g
same,Intestines,[2]; 30 min p.i.,1.20 ± 0.24 % IA/g
same,Kidneys,[2]; 30 min p.i.,86.7 ± 14.6 % IA/g
same,Liver,[2]; 30 min p.i.,1.55 ± 0.04 % IA/g
same,Lung,[2]; 30 min p.i.,2.23 ± 0.33 % IA/g
same,Muscle,[2]; 30 min p.i.,0.67 ± 0.06 % IA/g
same,Salivary glands,[2]; 30 min p.i.,1.59 ± 0.18 % IA/g
same,Spleen,[2]; 30 min p.i.,4.76 ± 1.13 % IA/g
same,Stomach,[2]; 30 min p.i.,0.85 ± 0.19 % IA/g
same,PC-3 flu Tumor,[2]; 30 min p.i.,1.04 ± 0.17 % IA/g
same,PC-3 PIP Tumor,[2]; 30 min p.i.,49.3 ± 4.97 % IA/g
same,Blood,[2]; 2 h p.i.,0.08 ± 0.01 % IA/g
same,Bone,[2]; 2 h p.i.,0.06 ± 0.00 % IA/g
same,Heart,[2]; 2 h p.i.,0.18 ± 0.03 % IA/g
same,Intestines,[2]; 2 h p.i.,0.95 ± 0.86 % IA/g
same,Kidneys,[2]; 2 h p.i.,58.8 ± 7.62 % IA/g
same,Liver,[2]; 2 h p.i.,0.56 ± 0.04 % IA/g
same,Lung,[2]; 2 h p.i.,0.31 ± 0.10 % IA/g
same,Muscle,[2]; 2 h p.i.,0.06 ± 0.01 % IA/g
same,Salivary glands,[2]; 2 h p.i.,0.39 ± 0.01 % IA/g
same,Spleen,[2]; 2 h p.i.,2.18 ± 0.38 % IA/g
same,Stomach,[2]; 2 h p.i.,0.35 ± 0.17 % IA/g
same,PC-3 flu Tumor,[2]; 2 h p.i.,0.13 ± 0.02 % IA/g
same,PC-3 PIP Tumor,[2]; 2 h p.i.,40.0 ± 2.55 % IA/g
same,accumulation in the kidneys on PET/CT images vs. the other radioligands,[3],significantly higher extent
